# PMC9296036, “A peptide interfering with the dimerization of oncogenic KITENIN protein and its stability suppresses colorectal tumour progression” (Clinical and Translational Medicine, 2022)
# Ends that are not written are not given here.
# Tested on: Caco2/KITENIN cells
# Assay: Transwell cell invasion assay, Caco2/KITENIN cells
# Type: cell-based
# Conditions: Caco2 cells transfected with KITENIN-V5, KDIP versus scrambled peptide
# Description: Cell invasion was measured using the transwell migration apparatus as described.[18] Briefly, cultured cells were seeded into the top of a 24‐well invasion chamber assay plate (Costar). Conditioned DMEM medium containing 10 μg/ml of fibronectin (Calbiochem) and 1% FBS was added to the bottom chamber as a chemoattractant. After 16 h (Caco2) or 48 h (HCT116) of incubation, the cells were stained. Cells at the top surface of the filters were wiped off with a cotton ball, and migrated cells on the bottom surface were counted in four random squares of .5 mm × .5 mm on each filter. The results are shown as the mean ± SEM of the number of cells per field for at least three independent experiments.
# Effect of KAI1 C‐terminal interacting tetraspanin (KITENIN) dimerization‐interfering peptide (KDIP) on tumour growth and metastasis in in vivo mouse model of colorectal cancer (CRC). […] For the evaluation of metastasis, total fluorescence emitted from liver nodules expressing iRFP was measured and counted (left panel) or metastatic tumour growth was counted as nodules that migrated to the surface of the liver, and a metastatic score was obtained by multiplying it with size (middle panel). Metastatic score or total fluorescence is represented as mean ± SEM. […] The quantitative amount of each protein was measured by densitometry and is represented as an arbitrary score (mean ± SEM, n = 6). […]
sequence,measurement,value
YARVRRRGPRRWRLVSDEAV [KDIP],cellular invasion by overexpressed KITENIN (in words),reduced
